Measurements from patent US20150010474A1, “Compounds And Methods For Selective Imaging And/Or Ablation” (Auckland Uniservices Limited, priority 2011, published 2015).

Assays:
[1] = test system: NTR over-expressing E. coli SOS-R2; test: Growth Inhibition assay in 58-membered NTR over-expression library; format: cell-based, Escherichia coli; details: 4 h incubation; 400 μM compound 67, 130 μM compound 93, 800 μM compound 97
[2] = test system: HCT116 cells overexpressing the nitroreductase NfsA from E. coli; test: Inhibition of cell proliferation, low cell density IC50 assay; format: cell-based, human; details: for IC50: Homo sapiens, HCT-116, 4 hour drug exposure, washing and regrowth for 5 days; for WT:NfsA: WT IC50/NfsA IC50
Protocol: IC50 values were determined as the concentration of prodrug required to inhibit cell growth by 50% of untreated controls following 4 hour drug exposure, with washing and regrowth for 5 days. WT:NfsA ratios were determined as the WT IC50/NfsA IC50.

[3] = test system: HCT-116 cells stably expressing E. coli NfsA; test: Flow cytometry of metabolism and cellular retention (EF5 antibody); format: cell-based, human; details: 20 μM; for Metabolism and cellular retention by FACS, HCT-116 NfsA cells (FIG. 3): 2 hours, oxic conditions (21% O2, 5% CO2)
Protocol: FIG. 3 illustrates the results of flow cytometry analysis of HCT-116 cells stably expressing E. coli NfsA relative to HCT-116 wild-type cells after in vitro exposure to 20 μM of compounds 15, 93 and 67 for 2 hours. 1×10^6 cells were incubated with test compounds under oxic conditions. Samples were fixed and stained with EF5 antibody Alexa 488 ELK3.51 at 100 μg/ml. Samples were then analysed on a Becton Dickinson FACscan flow cytometer.
FIG. 4 illustrates the results of a second independent flow cytometry analysis of compound 15 and 93 metabolism and binding in wild-type HCT-116 cells, HCT-116 cells stably over-expressing cytochrome P450 reductase (CYPOR), a human one-electron reductase known to metabolise nitroheterocyclic and nitroaromatic compounds, or HCT-116 cells stably expressing the bacterial nitroreductase E. coli NfsA. 1×10^6HCT-116 cells were seeded in 6 well plates underaerobic conditions (21% O2, 5% CO2). After 2 h incubation, drug free control (wild-type HCT-116, foreground), 20 μM (wild-type HCT-116, second plot), 100 μM (wild-type HCT-116, third plot), 20 μM (HCT-116-CYPOR, forth plot), 100 μM (HCT-116-CYPOR, fifth plot) or 20 μM (HCT-116-NfsA, sixth plot) of compound 15 or 93 was added. After 2 h incubation cells were harvested and fixed with paraformaldehyde before being incubated overnight with 100 μl of 75 μg/ml EF5 CY5 conjugated antibody. Samples were then analysed on a Becton Dickinson FACscan flow cytometer.

[4] = test system: bacterial nitroreductase over-expressing E. coli strains; test: IC50 (turbidity) in selected NTR over-expressing library strains; format: cell-based, Escherichia coli; details: 4 h post-challenge, serial dilution
Protocol: FIG. 2.3 illustrates the IC50 of compound 67 for selected NTR library strains (i.e. the concentration of compound 67 that yielded only 50% turbidity relative to an unchallenged control 4 h post-challenge, in replicate cultures across a serial dilution of compound 67). The strains selected were all those observed to have SOS activity above the empty plasmid control (“Empty”) in response to challenge with compound 67 as illustrated in FIG. 2(B), plus NfsB (E.c) as a negative control. For the IC50 assays, 100 μl of overnight cultures were used to inoculate 2 ml M63 minimal medium supplemented with 100 μg·ml^−1 ampicillin and 50 μM IPTG and incubated at 30° C., 200 rpm for 3.5 h. 40 μL aliquots from each culture were then added to individual wells of a sterile 384 well plate, each already containing 40 μl of ampicillin and IPTG-supplemented M63 medium and a dilution series of compound 67 as indicated on the X-axis of panel A. A. Raw growth curves. Each NTR over-expression strain was tested at least in duplicate (independent replicates), with the exception of NfsB (E.c), which was only measured once. Culture turbidity was monitored by optical density at 600 nm 4 h post-challenge. B. IC50 values calculated by comparison of the challenged cells with the unchallenged control for each strain, after subtracting the initial absorbance values (t=0 h), using SigmaPlot 10.0 (Systat Software Inc., Richmond, Calif.). Errors are 1 standard error of the mean (SEM).
(§1) FIG. 2.4 illustrates the IC50 of compound 93 for selected NTR library strains. […] B. IC50 values calculated by comparison of the challenged cells with the unchallenged control for each strain, after subtracting the initial absorbance values (t=0 h), using SigmaPlot 10.0 (Systat Software Inc., Richmond, Calif.). […]
as §1, with “2.5” for “2.4”, “97” for “93”

[5] = One-electron reduction potential E(1) by pulse radiolysis; format: physicochemical; details: determined against methylviologen, E(1)MV2+/MV+. = −447 ± 7 mV
Excerpt: The E(1) values of many compounds can be obtained from the literature, (for example, Wardman, P. J. Phys. Chem. Ref. Data, 1989, 18, 1637-1755.) or determined by a number of methods. The pulse radiolysis method, for example, measures the equilibrium constant between the radical anions of the nitroheterocyclic or nitroaromatic compound, formed upon their 1-electron reduction, and reference standards such as viologen and quinone compounds, from which data the E(1) values of the compounds can be calculated. (Meisel and Czapski. J. Phys. Chem., 1975, 79, 1503-1509.)
(Anderson et al, J. Phys. Chem. A, 101, 9704-9709, 1997).

Row | SMILES | Reductive metabolism at the nitro moiety by NTR library members (NfsA and NfsB families) [1] | IC50 [2] [µM] | WT:NfsA [2] | Metabolism and cellular retention by FACS, HCT-116 NfsA cells (FIG. 3) [3] | Inhibition of bacterial cell growth in NTR over-expressing strains compared to controls [4] | E(1)/V [5] [V] | Metabolism and cellular retention by FACS, HCT-116 NfsA cells (FIG. 4) ([3]; 2 h, aerobic conditions)
1 | Cc1ncc([N+](=O)[O-])n1CC(=O)NCC(F)(F)C(F)(F)F [Compound 67, 2-(2-methyl-5-nitro-1H-imidazol-1-yl)-N-(2,2,3,3,3-pentafluoropropyl)acetamide] | readily reductively metabolised at the nitro moiety by the majority of NfsA family members along with a subset of the NfsB family | 19 | 332 | excellent substrates for E. coli NfsA | Inhibition of bacterial cell growth was selectively observed | −0.501 | –
2 | O=C(Cn1cnc([N+](=O)[O-])c1)NCC(F)(F)C(F)(F)F [Compound 93, 2-(4-nitro-1H-imidazol-1-yl)-N-(2,2,3,3,3-pentafluoropropyl)acetamide] | selectively reductively metabolised at the nitro moiety by the NfsA family | 14.5 | 100 | excellent substrates for E. coli NfsA | Inhibition of bacterial cell growth was selectively observed | −0.578 | excellent substrates for E. coli NfsA
